Target: T1, Apaf-1 (Homo sapiens, UniProt O14727)
T1 construct: resulting in full-length Apaf-XL with a C-terminal six histidine tag; six histidine tag (His6) (C); made in house; host or cells: insect cells (Hi-5), baculovirus vector pFastbacHT / pFastbacH
T1 sequence (O14727 1-1248): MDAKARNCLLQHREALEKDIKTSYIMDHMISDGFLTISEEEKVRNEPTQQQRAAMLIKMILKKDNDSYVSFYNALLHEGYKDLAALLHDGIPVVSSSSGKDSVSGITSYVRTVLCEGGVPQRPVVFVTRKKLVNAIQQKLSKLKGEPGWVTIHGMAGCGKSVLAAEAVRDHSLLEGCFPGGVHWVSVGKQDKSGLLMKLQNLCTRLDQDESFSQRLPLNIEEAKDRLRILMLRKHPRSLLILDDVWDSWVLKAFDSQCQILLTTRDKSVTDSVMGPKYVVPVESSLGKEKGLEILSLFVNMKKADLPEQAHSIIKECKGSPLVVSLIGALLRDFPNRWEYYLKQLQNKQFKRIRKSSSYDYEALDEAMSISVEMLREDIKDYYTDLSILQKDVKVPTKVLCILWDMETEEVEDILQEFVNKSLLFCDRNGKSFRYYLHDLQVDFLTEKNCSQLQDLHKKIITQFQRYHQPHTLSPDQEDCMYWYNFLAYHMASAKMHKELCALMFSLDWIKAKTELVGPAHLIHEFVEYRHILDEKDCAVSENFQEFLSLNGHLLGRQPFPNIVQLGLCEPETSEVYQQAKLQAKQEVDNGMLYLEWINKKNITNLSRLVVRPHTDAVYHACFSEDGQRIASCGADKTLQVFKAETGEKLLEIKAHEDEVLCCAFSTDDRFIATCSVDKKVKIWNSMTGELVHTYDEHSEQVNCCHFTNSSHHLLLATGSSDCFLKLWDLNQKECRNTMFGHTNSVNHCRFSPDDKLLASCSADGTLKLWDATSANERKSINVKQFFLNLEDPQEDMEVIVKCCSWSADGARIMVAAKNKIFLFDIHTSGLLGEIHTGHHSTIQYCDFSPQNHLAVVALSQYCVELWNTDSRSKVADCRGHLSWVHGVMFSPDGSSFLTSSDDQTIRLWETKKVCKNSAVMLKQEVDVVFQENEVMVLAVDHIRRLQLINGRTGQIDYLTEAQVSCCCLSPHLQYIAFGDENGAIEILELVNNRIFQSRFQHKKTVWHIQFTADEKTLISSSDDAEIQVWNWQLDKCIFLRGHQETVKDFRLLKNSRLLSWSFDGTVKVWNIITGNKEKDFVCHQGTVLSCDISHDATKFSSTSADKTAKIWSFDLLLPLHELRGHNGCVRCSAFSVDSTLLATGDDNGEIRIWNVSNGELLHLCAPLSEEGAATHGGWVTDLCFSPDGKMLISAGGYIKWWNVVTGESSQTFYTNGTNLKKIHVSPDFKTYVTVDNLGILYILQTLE
Experiment: Apaf-1 oligomerization by gel filtration
Type: biochemical
Settings: for increase of oligomerization of Apaf-1 over the vehicle alone: 20 μM compound, 0.15 μM cyto c; for Apaf-1 complex assembly in the absence of cyto c: no cyto c
Experimental: FIG. 7 depicts activity of compounds 1-5 at low cyto c concentrations in a purified system. Apaf-1 was incubated with vehicle, cyto c, or cyto c plus 20 μM compound as indicated, and then separated on a Superose 6 gel filtration column. Individual fractions were assayed for relative Apaf-1 concentrations by capture ELISA (bar graph), or the ability to activate procaspase-3 processing in lysates (line graph). The percent of Apaf-1 in apoptosomes was determined by dividing the amount of Apaf-1 in fractions 8-11 by the total amount of Apaf-1. The extent of caspase-3 activation (given in arbitrary units) corresponds to the area under the curve for fractions 8-11 in each panel. Black bars represent fractions used for calculations.
As the compounds appeared to be acting prior to caspase activation, their effect on the oligomerization of Apaf-1 was assessed (K. Cain, D. G. Brown, C. Langlais, G. M. Cohen, J Biol Chem 274, 22686-92 (1999); K. Cain et al., J Biol Chem 275, 6067-70 (2000)). By gel filtration, Apaf-1 normally runs as a monomer of ˜140 kD (FIG. 7) (see, A. Saleh, S. M. Srinivasula, S. Acharya, R. Fishel, E. S. Alnemri, J Biol Chem 274, 17941-5 (1999)). Incubation of Apaf-1 with 5 μM cyto c induces over 90% of the Apaf-1 to form large complexes of ˜700 kD, whereas incubation with 0.15 μM cyto c concentration allowed only 22% of the Apaf-1 to assemble into complexes. However, the addition of 20 μM compound 2 or 5 at the lower cyto c concentration caused the formation of two higher molecular weight complexes: a major peak that runs at the same retention time as the complex seen at 5 μM cyto c (˜700 kD), and a minor peak that elutes in the void volume. […] To determine if the Apaf-1 complexes induced by the compounds at the lower cyto c concentration are competent for caspase activation, procaspase-9, procaspase-3, and dATP were added to fractions from the gel filtration column and assayed for caspase-3 activation. Fractions from samples that had been incubated with 5 μM cyto c strongly activated caspase-3 processing (FIG. 7, panel ii, line graph), with the maximal caspase activation corresponding to the fractions that contained the apoptosome complex. On the other hand, no fractions form the sample without cyto c activated capsase-3 processing (panel i). There was a small but measurable amount of capsase-3 activation when the cyto c concentration was reduced to 0.15 μM (panel iii). However, the extent of caspase-3 activation at the reduced level of cyto c increased approximately 4-fold when either compound 2 or 5 was added to the reaction (from 0.36 arbitrary units for the vehicle alone to 1.57 and 1.4 for compounds 2 and 5, respectively, panels iv and vi). […] Again, there was no increase in capsapse-3 activation when compounds were incubated with Apaf-1 in the absence of cyto c.
Bovine heart cyto c is purchased from Sigma and used without further purification. The XL form of Apaf-1 is cloned into pFastbacH and expressed in insect cells, resulting in full-length Apaf-XL with a C-terminal six histidine tag. Purification of Apaf-1 is according to A. Saleh, et al., J Biol Chem 274, 17941-45 (1999). 100 μL of 2 μM Apaf-1 is combined with 300 μM dATP in a mixture, with or without the further addition of 0.15 μM cyto c or compounds and heated for 30 min at 37° C.
The mixtures are next injected into a Superose 6 gel filtration column and separated at 0.4 mL/min in PBS; 0.8 mL fractions are collected 10 min after injection. […]

| increase of oligomerization of Apaf-1 over the vehicle alone | Apaf-1 complex assembly in the absence of cyto c | Structure (SMILES) |
| --- | --- | --- |
| about 1.5 fold | no complex assembly | O=C(NCc1ccc(Cl)c(Cl)c1)OC1CCc2ccccc21 (centres unmarked) [Compound 5] |
| no effect |  | O=C(NCc1ccc(Cl)c(Cl)c1)OC1CCc2ccccc21 (centres unmarked) [Compound 4] |
| about 1.5 fold | no complex assembly | O=C1C(=O)N(Cc2ccc(Cl)c(Cl)c2)c2ccccc21 [Compound 2] |

Reference: US20030229132A1, “Small molecule modulators of apoptosis” (priority 2002, published 2003)
